Reference: the supplement of paper PMC10307832

Key:
Assay in all cases: relative viability (nuclei count vs DMSO), 5 days (fraction); higher = more cells survive
Afatinib + Luminespib = compound: CN(C)C/C=C/C(=O)Nc1cc2c(Nc3ccc(F)c(Cl)c3)ncnc2cc1O[C@H]1CCOC1 [Afatinib] + CCNC(=O)c1noc(-c2cc(C(C)C)c(O)cc2O)c1-c1ccc(CN2CCOCC2)cc1 [Luminespib] (partner 0.01 µM)
Method in brief: (§1)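 Relative viability was taken as the ratio of nuclei in treated wells to nuclei in vehicle wells. Lung cancer cell lines in 1536-well plates received compounds by pin tool one day after seeding, either one drug alone or a fixed anchor-drug dose plus five library-drug doses (not always all listed) in √10 steps. Nuclei were counted on 4× images after 5 days of treatment, and values are medians of duplicate plates.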

Afatinib + Foretinib = compound: CN(C)C/C=C/C(=O)Nc1cc2c(Nc3ccc(F)c(Cl)c3)ncnc2cc1O[C@H]1CCOC1 [Afatinib] + COc1cc2c(Oc3ccc(NC(=O)C4(C(=O)Nc5ccc(F)cc5)CC4)cc3F)ccnc2cc1OCCCN1CCOCC1 [Foretinib] (partner 0.25 µM)
Method in brief: as §1

Afatinib + Dasatinib = compound: CN(C)C/C=C/C(=O)Nc1cc2c(Nc3ccc(F)c(Cl)c3)ncnc2cc1O[C@H]1CCOC1 [Afatinib] + Cc1nc(Nc2ncc(C(=O)Nc3c(C)cccc3Cl)s2)cc(N2CCN(CCO)CC2)n1 [Dasatinib] (partner 0.075 µM)
Method in brief: as §1

Afatinib + Decitabine = compound: CN(C)C/C=C/C(=O)Nc1cc2c(Nc3ccc(F)c(Cl)c3)ncnc2cc1O[C@H]1CCOC1 [Afatinib] + Nc1ncn([C@H]2C[C@H](O)[C@@H](CO)O2)c(=O)n1 [Decitabine] (partner 2 µM)
Method in brief: as §1

Cell Line | relative viability (Afatinib + Luminespib; first compound 0.005 µM) | relative viability (Afatinib + Luminespib; first compound 0.01581 µM) | relative viability (Afatinib + Luminespib; first compound 0.05 µM) | relative viability (Afatinib + Luminespib; first compound 0.1581 µM) | relative viability (Afatinib + Luminespib; first compound 0.5 µM) | relative viability (Afatinib + Foretinib; first compound 0.005 µM) | relative viability (Afatinib + Foretinib; first compound 0.01581 µM) | relative viability (Afatinib + Foretinib; first compound 0.05 µM) | relative viability (Afatinib + Foretinib; first compound 0.1581 µM) | relative viability (Afatinib + Foretinib; first compound 0.5 µM) | relative viability (Afatinib + Dasatinib; first compound 0.005 µM) | relative viability (Afatinib + Dasatinib; first compound 0.01581 µM) | relative viability (Afatinib + Dasatinib; first compound 0.05 µM) | relative viability (Afatinib + Dasatinib; first compound 0.1581 µM) | relative viability (Afatinib + Dasatinib; first compound 0.5 µM) | relative viability (Afatinib + Decitabine; first compound 0.005 µM) | relative viability (Afatinib + Decitabine; first compound 0.01581 µM) | relative viability (Afatinib + Decitabine; first compound 0.05 µM) | relative viability (Afatinib + Decitabine; first compound 0.1581 µM) | relative viability (Afatinib + Decitabine; first compound 0.5 µM)
NCI-H1395 | 0.733 | 0.781 | 0.664 | 0.7 | 0.665 | 0.939 | 1.05 | 0.973 | 0.914 | 0.937 | 0.453 | 0.408 | 0.415 | 0.404 | 0.376 | 0.773 | 0.741 | 0.744 | 0.657 | 0.672
NCI-H1437 | 1.2 | 1.14 | 1.23 | 1.07 | 1.12 | 1.26 | 1.27 | 1.24 | 1.31 | 1.33 | 0.464 | 0.408 | 0.403 | 0.372 | 0.352 | 0.597 | 0.552 | 0.542 | 0.535 | 0.552
NCI-H1650 | 0.181 |  | 0.188 | 0.164 | 0.224 | 0.871 |  | 0.9 | 0.671 | 0.774 | 0.295 |  | 0.307 | 0.264 | 0.28 | 0.383 | 0.403 | 0.426 | 0.503 | 0.368
NCI-H1651 | 0.923 | 0.817 | 1.03 | 0.835 | 0.726 | 0.825 | 0.636 | 0.822 | 0.748 | 0.746 | 0.483 | 0.426 | 0.407 | 0.386 | 0.381 | 0.558 | 0.57 | 0.6 | 0.576 | 0.585
NCI-H1666 | 0.973 | 0.931 | 0.796 | 0.807 | 0.808 | 0.932 | 0.812 | 0.761 | 0.725 | 0.774 | 0.784 | 0.772 | 0.672 | 0.672 | 0.776 | 0.702 | 0.67 | 0.642 | 0.562 | 0.657
NCI-H1734 | 0.209 | 0.225 | 0.196 | 0.197 | 0.19 | 0.926 | 0.785 | 0.83 | 0.73 | 0.924 | 0.482 | 0.386 | 0.497 | 0.491 | 0.444 | 0.542 | 0.538 | 0.47 | 0.491 | 0.489
NCI-H1755 | 0.287 | 0.367 | 0.587 | 0.408 | 0.49 | 0.947 | 0.937 | 0.964 | 0.901 | 0.897 | 0.483 | 0.424 | 0.435 | 0.393 | 0.399 | 0.725 | 0.693 | 0.728 | 0.695 | 0.661
NCI-H1793 | 0.19 | 0.215 | 0.238 | 0.168 | 0.173 | 0.621 | 0.463 | 0.401 | 0.352 | 0.353 | 0.33 | 0.341 | 0.343 | 0.361 | 0.272 | 0.43 | 0.344 | 0.329 | 0.27 | 0.417
NCI-H1915 | 0.807 | 0.848 | 0.772 | 0.743 | 0.596 | 1.19 | 1.05 | 1.11 | 1.02 | 0.974 | 0.361 | 0.347 | 0.313 | 0.301 | 0.304 | 0.269 | 0.268 | 0.272 | 0.268 | 0.269
NCI-H1944 | 0.609 | 0.629 | 0.552 | 0.498 | 0.491 | 0.797 | 0.899 | 0.668 | 0.535 | 0.657 | 0.211 | 0.205 | 0.21 | 0.185 | 0.186 | 0.423 | 0.403 | 0.419 | 0.343 | 0.344
NCI-H1975 | 0.199 | 0.18 | 0.199 | 0.122 | 0.169 | 0.952 | 0.907 | 0.872 | 0.353 | 0.303 | 0.455 | 0.386 | 0.306 | 0.15 | 0.11 | 0.395 | 0.283 | 0.391 | 0.264 | 0.373
NCI-H1993 | 0.752 | 0.557 | 0.58 | 0.549 | 0.571 | 0.551 | 0.598 | 0.6 | 0.675 | 0.618 | 0.459 | 0.561 | 0.585 | 0.729 | 0.576 | 0.552 | 0.51 | 0.546 | 0.509 | 0.578
NCI-H2009 | 1.08 | 1.04 | 1.13 | 1.02 | 1.08 | 1.22 | 1.19 | 1.31 | 1.21 | 1.33 | 0.306 | 0.295 | 0.341 | 0.259 | 0.285 | 0.398 | 0.383 | 0.357 | 0.366 | 0.358
NCI-H2023 | 0.85 | 0.711 | 0.756 | 0.594 | 0.71 | 0.811 | 0.892 | 0.42 | 0.333 | 0.562 | 0.61 | 0.498 | 0.492 | 0.445 | 0.546 | 0.234 | 0.197 | 0.211 | 0.2 | 0.234
NCI-H2085 | 0.405 | 0.396 | 0.409 | 0.32 | 0.296 | 0.888 | 0.773 | 0.791 | 0.59 | 0.628 | 0.238 | 0.263 | 0.22 | 0.199 | 0.212 | 0.577 | 0.522 | 0.519 | 0.517 | 0.515
NCI-H2087 | 0.178 | 0.163 | 0.21 | 0.167 | 0.161 | 1.19 | 1.16 | 1.24 | 1.15 | 0.842 | 0.992 | 0.804 | 0.825 | 0.852 | 0.715 | 0.336 | 0.227 | 0.262 | 0.209 | 0.25
